Measured values reported in patent publication US8846669B2, “Oxazolidinone derivative and medical composition containing same” (Legochem Biosciences, Inc., priority 2011, dated 2014).
Values after ≈ are worked out from the molar mass of the structure shown.

What was measured:
Assay in all cases: In vitro antibacterial activity, broth microdilution MIC90
Assay type in all cases: cell-based
[1] = system: Vancomycin Resistant Enterococcus faecalis; settings: Enterococcus faecalis
Protocol: (§1) MIC90 was measured by broth microdilution method based on CLSI standards [reference: Clinical and Laboratory Standards Institute Document. (2000) Methods for Dilution Antimicrobial Susceptibility Test for Bacteria that Grow Aerobically-Fifth Edition: M7-A5. CLSI, Villanova, Pa.].
(§2) Activities of 12 strains including Staphylococcus aureus, Methicillin Resistant Staphylococcus aureus, Staphylococcus epidermidis, Methicillin Resistant Staphylococcus epidermidis, Enterococcus faecalis, Vancomycin Resistant Enterococcus faecalis, Linezolid and Vancomycin Resistant Enterococcus faecalis, Enterococcus faecium, Vancomycin Resistant Enterococcus faecium, Linezolid and Vancomycin Resistant Enterococcus faecium, and Moraxella catarrhalis, were measured, and results are shown in Table 1 below.
(§3) The final concentration of test material in the antibacterial test was from 0.063 μg/mL (minimum) to 128 μg/mL (maximum), and the final concentration of DMSO used as an excipient was 2.5% (V/V). Linezolid represented by Formula B below (manufactured by Pfizer) was used as a control and bacterial activity thereof was compared with those of the test materials.

Moraxella catarrhalis = settings: Moraxella catarrhalis
Protocol: as §1, §2, §3

[2] = system: Methicillin Resistant Staphylococcus aureus; settings: Staphylococcus aureus
Protocol: as §1, §2, §3

[3] = system: Vancomycin Resistant Enterococcus faecium; settings: Enterococcus faecium
Protocol: as §1, §2, §3

[4] = system: Staphylococcus epidermidis; settings: Staphylococcus epidermidis
Protocol: as §1, §2, §3

Enterococcus faecalis = settings: Enterococcus faecalis
Protocol: as §1, §2, §3

Staphylococcus aureus = settings: Staphylococcus aureus
Protocol: as §1, §2, §3

[5] = system: Linezolid and Vancomycin Resistant Enterococcus faecalis; settings: Enterococcus faecalis
Protocol: as §1, §2, §3

[6] = system: Methicillin Resistant Staphylococcus epidermidis; settings: Staphylococcus epidermidis
Protocol: as §1, §2, §3

Enterococcus faecium = settings: Enterococcus faecium
Protocol: as §1, §2, §3

[7] = system: Linezolid and Vancomycin Resistant Enterococcus faecium (strain 11); settings: Enterococcus faecium
Protocol: as §1, §2, §3

[8] = system: Linezolid and Vancomycin Resistant Enterococcus faecium (strain 10); settings: Enterococcus faecium
Protocol: as §1, §2, §3

SMILES	MIC90 [1]	MIC90 (Moraxella catarrhalis)	MIC90 [2]	MIC90 [3]	MIC90 [4]	MIC90 (Enterococcus faecalis)	MIC90 (Staphylococcus aureus)	MIC90 [5]	MIC90 [6]	MIC90 (Enterococcus faecium)	MIC90 [7]	MIC90 [8]
COC(=O)NC[C@H]1CN(c2ccc(-c3ccc(N4C=NN(C)CC4)nc3)c(F)c2)C(=O)O1 [Compound 24]	1 µg/mL (≈ 2.26 µM)	4 µg/mL (≈ 9.04 µM)	1 µg/mL (≈ 2.26 µM)	0.5 µg/mL (≈ 1.13 µM)	0.5 µg/mL (≈ 1.13 µM)	1 µg/mL (≈ 2.26 µM)	0.5 µg/mL (≈ 1.13 µM)	4 µg/mL (≈ 9.04 µM)	2 µg/mL (≈ 4.52 µM)	0.5 µg/mL (≈ 1.13 µM)	8 µg/mL (≈ 18.1 µM)	4 µg/mL (≈ 9.04 µM)
COC(=O)NC[C@H]1CN(c2ccc(-c3ccc(N4C=NN(C(=O)CO)CC4)nc3)c(F)c2)C(=O)O1 [Compound 25]	0.5 µg/mL (≈ 1.03 µM)	4 µg/mL (≈ 8.22 µM)	0.5 µg/mL (≈ 1.03 µM)	0.5 µg/mL (≈ 1.03 µM)	0.25 µg/mL (≈ 0.514 µM)	0.5 µg/mL (≈ 1.03 µM)	0.063 µg/mL (≈ 0.13 µM)	4 µg/mL (≈ 8.22 µM)	1 µg/mL (≈ 2.06 µM)	0.25 µg/mL (≈ 0.514 µM)	2 µg/mL (≈ 4.11 µM)	4 µg/mL (≈ 8.22 µM)
COC(=O)NC[C@H]1CN(c2ccc(-c3ccc(N4C=NN(C(N)=O)CC4)nc3)c(F)c2)C(=O)O1 [Compound 26]	0.5 µg/mL (≈ 1.06 µM)	4 µg/mL (≈ 8.48 µM)	1 µg/mL (≈ 2.12 µM)	0.5 µg/mL (≈ 1.06 µM)	0.5 µg/mL (≈ 1.06 µM)	0.5 µg/mL (≈ 1.06 µM)	0.25 µg/mL (≈ 0.53 µM)	4 µg/mL (≈ 8.48 µM)	1 µg/mL (≈ 2.12 µM)	0.25 µg/mL (≈ 0.53 µM)	2 µg/mL (≈ 4.24 µM)	4 µg/mL (≈ 8.48 µM)
CNC(=O)N1CCN(c2ccc(-c3ccc(N4C[C@H](CNC(=O)OC)OC4=O)cc3F)cn2)C=N1 [Compound 27]	0.5 µg/mL (≈ 1.03 µM)	4 µg/mL (≈ 8.24 µM)	2 µg/mL (≈ 4.12 µM)	0.5 µg/mL (≈ 1.03 µM)	1 µg/mL (≈ 2.06 µM)	0.5 µg/mL (≈ 1.03 µM)	0.5 µg/mL (≈ 1.03 µM)	4 µg/mL (≈ 8.24 µM)	2 µg/mL (≈ 4.12 µM)	0.25 µg/mL (≈ 0.515 µM)	2 µg/mL (≈ 4.12 µM)	2 µg/mL (≈ 4.12 µM)
CCN1CCN(c2ccc(-c3ccc(N4C[C@H](CO)OC4=O)cc3F)cn2)C=N1 [Compound 29]	16 µg/mL (≈ 40.1 µM)	32 µg/mL (≈ 80.1 µM)	8 µg/mL (≈ 20 µM)	8 µg/mL (≈ 20 µM)	4 µg/mL (≈ 10 µM)	16 µg/mL (≈ 40.1 µM)	8 µg/mL (≈ 20 µM)	64 µg/mL (≈ 160 µM)	8 µg/mL (≈ 20 µM)	8 µg/mL (≈ 20 µM)	64 µg/mL (≈ 160 µM)	64 µg/mL (≈ 160 µM)
O=C1O[C@@H](Cn2ccnn2)CN1c1ccc(-c2ccc(N3C=NNCC3)nc2)c(F)c1 [Compound 30]	1 µg/mL (≈ 2.37 µM)	4 µg/mL (≈ 9.47 µM)	1 µg/mL (≈ 2.37 µM)	0.5 µg/mL (≈ 1.18 µM)	0.5 µg/mL (≈ 1.18 µM)	0.5 µg/mL (≈ 1.18 µM)	0.25 µg/mL (≈ 0.592 µM)	4 µg/mL (≈ 9.47 µM)	2 µg/mL (≈ 4.73 µM)	0.25 µg/mL (≈ 0.592 µM)	2 µg/mL (≈ 4.73 µM)	2 µg/mL (≈ 4.73 µM)
CN1CCN(c2ccc(-c3ccc(N4C[C@H](Cn5ccnn5)OC4=O)cc3F)cn2)C=N1 [Compound 31]	0.5 µg/mL (≈ 1.15 µM)	2 µg/mL (≈ 4.58 µM)	1 µg/mL (≈ 2.29 µM)	0.25 µg/mL (≈ 0.573 µM)	0.25 µg/mL (≈ 0.573 µM)	0.5 µg/mL (≈ 1.15 µM)	0.25 µg/mL (≈ 0.573 µM)	2 µg/mL (≈ 4.58 µM)	1 µg/mL (≈ 2.29 µM)	0.25 µg/mL (≈ 0.573 µM)	2 µg/mL (≈ 4.58 µM)	1 µg/mL (≈ 2.29 µM)
O=C(CO)N1CCN(c2ccc(-c3ccc(N4C[C@H](Cn5ccnn5)OC4=O)cc3F)cn2)C=N1 [Compound 32]	0.5 µg/mL (≈ 1.04 µM)	2 µg/mL (≈ 4.16 µM)	1 µg/mL (≈ 2.08 µM)	0.5 µg/mL (≈ 1.04 µM)	0.25 µg/mL (≈ 0.52 µM)	0.5 µg/mL (≈ 1.04 µM)	0.25 µg/mL (≈ 0.52 µM)	2 µg/mL (≈ 4.16 µM)	1 µg/mL (≈ 2.08 µM)	0.25 µg/mL (≈ 0.52 µM)	2 µg/mL (≈ 4.16 µM)	2 µg/mL (≈ 4.16 µM)
NC(=O)N1CCN(c2ccc(-c3ccc(N4C[C@H](Cn5ccnn5)OC4=O)cc3F)cn2)C=N1 [Compound 33]	0.25 µg/mL (≈ 0.537 µM)	2 µg/mL (≈ 4.3 µM)	1 µg/mL (≈ 2.15 µM)	0.25 µg/mL (≈ 0.537 µM)	0.25 µg/mL (≈ 0.537 µM)	0.25 µg/mL (≈ 0.537 µM)	0.25 µg/mL (≈ 0.537 µM)	2 µg/mL (≈ 4.3 µM)	1 µg/mL (≈ 2.15 µM)	0.125 µg/mL (≈ 0.269 µM)	2 µg/mL (≈ 4.3 µM)	2 µg/mL (≈ 4.3 µM)
